Patent US7629318B2, “Immunosuppressant compounds, methods and uses related thereto” (priority 2002, dated 2009)
“And” between values parts separate entries of the source, which are not always exact repeats. Equal values may be shown once. Numbered stars: 1 amine (or outer) side, 2 acyl side, 3 side chain; on linkers, the order of the positions; unused ones are H or OH. Square brackets hold non-standard residues; d marks the D form. Peptide text beside a SMILES is read from it. ξ: configuration not given here. Gly(1-amidinopiperidin-4-yl) = N=C(N)N1CCC([C@H](N)C(=O)O)CC1; X1 = CC(C)c1oc([C@H](CO)N[*:1])nc1C(=O)[*:2]; Pro(3R-Ph) = O=C(O)[C@H]1NCC[C@@H]1c1ccccc1; Met(O) = CS(=O)CC[C@H](N)C(=O)O; Tic = O=C(O)[C@@H]1Cc2ccccc2CN1; Cha = N[C@@H](CC1CCCCC1)C(=O)O; ξDisc = O=C(O)C1NCc2ccccc21

How the values were obtained:
[1] = molecular target: DR4Dw4 (DRA1*0101 DRB1*0401) (Homo sapiens, UniProt P01903+P01911, A100K/A169T/F76Y/I96L/K127E/L162R/M171V/N62H/P40V/Q125Y/R42H/S133A/S149N/S66Y/V115G/V209L/W38E); assay: Competitive binding to MHC-II protein DR4Dw4
In short: (§1)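 Each MHC-II allele incubated with compound 16 hours at room temperature in duplicate; controls lacked compound, or both compound and MHC-II. Complexes captured 2 h at 4 °C, bound biotinylated peptide detected via europium-streptavidin and DELFIA enhancement, time-resolved fluorescence read at ex 340/em 613 (615) nm.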

[2] = molecular target: DR4Dw14 (DRA1*0101 DRB1*0404) (Homo sapiens, UniProt P01903+P01911, A100R/A169T/F76Y/I96L/K127E/L162R/M171V/N62H/P40V/Q125Y/R42H/S133A/S149N/S66Y/V209L/W38E); assay: Competitive binding to MHC-II protein DR4Dw14; conditions: 0404; read-out: Protein binding IC50 (nM) 0404
In short: as §1

[3] = molecular target: DR1 (DRA1*0101 DRB1*0101) (Homo sapiens, UniProt P01903+P01911, A100R/D57E/F55L/F60I/F76Y/I96L/L162R/M171V/P40L/Q125E/R42F/V115G/Y59C); assay: Competitive binding to MHC-II protein DR1; conditions: Protein binding IC50 (nM) 0101, 0101
In short: as §1

[4] = molecular target: Cathepsin D (EC 3.4.23.5 from bovine spleen) (Bos taurus, UniProt P80209)
Method: The stability of the peptidomimetic compounds towards lysosomal degradation was examined by incubation with Cathepsin B1 (EC 3.4.22.1 from bovine spleen; Sigma-Aldrich, Taufkirchen; dissolved at 10000 U/l in ddH2O) and D (EC 3.4.23.5 from bovine spleen; Sigma-Aldrich, Taufkirchen; dissolved at 10000 U/l in ddH2O) for four hours at 37° C. using a compound concentration of 50 μM and an enzyme/substrate ratio of 0.4 U/μmol. The samples contained 25 ppm 4-isopropyl benzyl alcohol (IPBA; Sigma-Aldrich, Taufkirchen) as internal standard.
Assay buffer was prepared by adding 35 μl of a 1% IPBA in DMSO solution and 28 μl of a 10000 U/l Cathepsin B1 or Cathepsin D stock solution to 14 ml of 100 mM sodium acetate, 1 mM EDTA, 1 mM DTT, pH 5.00 or 100 mM sodium acetate, pH 4.50, respectively. 8.8 μl of a 5 mM (or 4.4 μl of a 10 mM) compound stock solution (in 10% DMSO/water) were placed into a 1.5 ml Eppendorf tube. The reaction was started by adding 875 μl fully supplemented assay buffer to each tube, whirlmixing and incubation at 37° C. At 0 and 4 hours 400 μl samples were taken and the enzyme was inactivated by addition of 40 μl […] TFA aq. The samples were kept frozen at −20° C. until analysis by RP-HPLC (200 μl injection volume; Nucleosil 100-5 C18, 12.5×4.6 cm; Gradient: 20-50% acetonitrile in 30 min).
Compounds co-eluting with the internal standard during RP-HPLC analysis were tested without the standard as Example 16.

[5] = molecular target: Cathepsin B1 (EC 3.4.22.1 from bovine spleen) (Bos taurus, UniProt P07688); conditions: Cathepsin B, 4 h
[6] = molecular target: T1, LG2 (DR1: DRA1*0101 DRB1*0101) cells (Homo sapiens, UniProt P01903+P01911, A100R/D57E/F55L/F60I/F76Y/I96L/L162R/M171V/P40L/Q125E/R42F/V115G/Y59C); assay: Competitive binding to MHC II proteins expressed on LG2 cells; type: cell-based; conditions: Cell binding IC50 (uM) LG2 (0101), LG2 (0101)
T1 construct: MHC II Proteins Expressed on PRIESS and LG2 Cells; endogenous in cells; host or cells: LG2 cells
Method: (§2) For use in the binding assay the cells were re-suspended in medium containing 1% FCS at a density of 2.5×10^6 cells/ml.
(§3) The assay was performed in sterile 96 well polystyrene microtiter plates. A 10 fold dilution series of compounds (16 nM-1615 μM) in 1% FCS was prepared from 5 or 10 mM compound stock solutions in 10% DMSO/water. 50 μl of each compound dilution were added in duplicates to 50 μl of a 16 μM solution of indicator peptide in 1% FCS. Cell binding was initiated by adding 100 μl of 2.5×10^6 cells/ml 1% FCS to each well. Controls were included containing the DMSO concentration present in the solution with the highest compound concentration. The cells were incubated at 37° C., 6% CO2. After 4 hours the cells were washed with 200 μl PBS and lysed in 200 μl lysis buffer (50 mM sodium phosphate, 150 mM sodium chloride, 1% (w/v) NP-40, 25 mM iodoacetamide, 1 mM PMSF, 3.1% protease inhibitor cocktail: 0.32 g/l of Chymostatin, Antipain, Pepstatin A, Soybean trypsin inhibitor and Leupeptin each, pH 7.5) for 10 min.
(§4) After washing with PBS, 190 μl of cell lysate were transferred to the appropriate wells of the capture plate and incubated for 2 h at 4° C. The wells were washed six times with 200 μl/well cooled (4 to 8° C.) of 1×DELFIA wash (Wallac-ADL-GmbH, Freiburg), incubated with 100 μl of cooled Europium-streptavidin conjugate (Wallac-ADL-GmbH, Freiburg; diluted 1/1000 with DELFIA assay buffer) for 30 minutes at 4° C., again washed six times with cooled 1×DELFIA wash and, finally, incubated with 200 μl cooled DELFIA enhancement solution (Wallac-ADL-GmbH, Freiburg) for one hour at room temperature before reading the time-resolved europium fluorescence at λex Eu^3+: 340 nm and λem Eu^3+: 613 (615) nm (Wallac Victor^2 1420 Multilabel Counter, Wallac-ADL-GmbH, Freiburg).

[7] = Stability of compounds in human blood plasma; type: in vitro ADME
In short: (§5)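 Compounds at 5 μM final in rat, mouse or human plasma, incubated at 37 °C and sampled at 0, 6 and 24 h. Proteins precipitated with acetonitrile and the supernatant dried and reconstituted in 50% acetonitrile/0.1% TFA. PBS controls run for unstable compounds.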

[8] = Stability of compounds in rat blood plasma; type: in vitro ADME
In short: as §5

[9] = molecular target: T2, Priess (DR4Dw4: DRA1*0101 DRB1*0401) cells (Homo sapiens, UniProt P01903+P01911, A100K/A169T/F76Y/I96L/K127E/L162R/M171V/N62H/P40V/Q125Y/R42H/S133A/S149N/S66Y/V115G/V209L/W38E); assay: Competitive binding to MHC II proteins expressed on Priess cells; type: cell-based
T2 construct: MHC II Proteins Expressed on PRIESS and LG2 Cells; endogenous in cells; host or cells: Priess cells
Method: as §2, §3, §4

[10] = Stability of compounds in mouse blood plasma; type: in vitro ADME
In short: as §5

[11] = system: T-cell proliferation, DR14-LN

Compound | IC50 [1] | IC50 [2] | IC50 [3] | Stability (Arbitrary units) Cath D 4 h [4] | Stability (Arbitrary units) Cath B 4 h [5] | IC50 [6] | Stability (Arbitrary units) Human 6 h [7] | Stability (Arbitrary units) Human 24 h [7] | Stability (Arbitrary units) Rat 6 h [8] | Stability (Arbitrary units) Rat 24 h [8] | IC50 [9] | Stability (Arbitrary units) Mouse 6 h [10] | Stability (Arbitrary units) Mouse 24 h [10] | Immunsupressive assays DR14-LN (Max) % Inhibition ([11]; maximal inhibition) | IC50 ([11]; read-out: Immunsupressive assays DR14-LN (IC50))
CSCC[C@H](NC(=O)C1c2ccccc2CN1C(=O)[C@H](CCCNC(=N)N)NC(=O)[C@H](CC1CCCCC1)NC(C)=O)C(=O)N1CC[C@H](c2ccccc2)[C@H]1C(=O)N[C@@H](CO)c1nc(C(=O)N(C)C)c(C(C)C)o1 (stereo partly drawn) [Compound P40-1, Ac-Cha-Arg-Disc-Met-βPhPro-[S(oxaz)L]NMe2] (Ac-[Cha]R[ξDisc]M[Pro(3R-Ph)][X1]-NMe2) | 0.27 µM | 98 nM | 140 nM | 93 Arbitrary units | 99 Arbitrary units | 8 µM | 108 Arbitrary units | 103 Arbitrary units | 111 Arbitrary units | 71 Arbitrary units | 3 µM | – | – | – | –
CC(=O)N[C@@H](CC1CCCCC1)C(=O)N[C@@H](CCCNC(=N)N)C(=O)N1Cc2ccccc2C[C@H]1C(=O)N[C@@H](CC[S+](C)[O-])C(=O)N1CC[C@H](c2ccccc2)[C@H]1C(=O)N[C@@H](CO)c1nc(C(=O)N(C)C)c(C(C)C)o1 (stereo partly drawn) [Compound P43, Ac-Cha-Arg-Tic-Met(O)-βPhPro-[S(oxaz)L]-NMe2] (Ac-[Cha]R[Tic][Met(O)][Pro(3R-Ph)][X1]-NMe2) | 0.32 µM | 1700 nM | 380 nM | 101 Arbitrary units | 96 Arbitrary units | 13 µM | 134 Arbitrary units | 131 Arbitrary units | 96 Arbitrary units | 71 Arbitrary units | 3.1 µM | 96 Arbitrary units | 82 Arbitrary units | – | –
CSCC[C@H](NC(=O)[C@@H]1Cc2ccccc2CN1C(=O)[C@@H](NC(=O)[C@H](CC1CCCCC1)NC(C)=O)C1CCN(C(=N)N)CC1)C(N)=O [Compound P67, Ac-Cha-Gpg-Tic-Met-NH2] (Ac-[Cha][Gly(1-amidinopiperidin-4-yl)][Tic]M-NH2) | 0.41 µM | 1060 nM and 1080 nM | 120 nM | 113 Arbitrary units | 58 Arbitrary units | 4.5 µM | 97 Arbitrary units | 100 Arbitrary units | 10 Arbitrary units | 34 Arbitrary units | 4.5 µM | 71 Arbitrary units | 16 Arbitrary units | – | –
CSCC[C@H](NC(=O)[C@@H]1Cc2ccccc2CN1C(=O)[C@@H](NC(=O)[C@H](CC1CCCCC1)NC(C)=O)C1CCN(C(=N)N)CC1)C(=O)N1CC[C@H](c2ccccc2)[C@H]1C(N)=O [Compound P80, Ac-Cha-Gpg-Tic-Met-βPhProNH2] (Ac-[Cha][Gly(1-amidinopiperidin-4-yl)][Tic]M[Pro(3R-Ph)]-NH2) | 0.67 µM | 470 nM | 550 nM | 84 Arbitrary units | 90 Arbitrary units | 2.7 µM | 139 Arbitrary units | 134 Arbitrary units | 102 Arbitrary units | 39 Arbitrary units | 2.7 µM | 106 Arbitrary units | 123 Arbitrary units | 88% | 94 µM
